Experiments:
Test in all cases: Post-emergence efficacy, glasshouse pot test
Assay type in all cases: in vivo
Details in all cases: post-emergence application at 1000 g/ha; evaluated after 13 days; five point scale
[1] = tested on: Alopecurus myosuroides (ALOMY)
Description: (§1) B1 Post-emergence Efficacy Seeds of a variety of test species are sown in standard soil in pots:—Solanum nigrum (SOLNI), Amaranthus retoflexus (AMARE), Setaria faberi (SETFA), Alopecurus myosuroides (ALOMY), Echinochloa crus-galli (ECHCG), Ipomoea hederacea (IPOHE). After 8 days cultivation (post-emergence) under controlled conditions in a glasshouse (at 24/16° C., day/night; 14 hours light; 65% humidity), the plants are sprayed with an aqueous spray solution derived from the formulation of the technical active ingredient in acetone/water (50:50) solution containing 0.5% Tween 20 (polyoxyethelyene sorbitan monolaurate, CAS RN 9005-64-5). Compounds are applied at 1000 g/ha. The test plants are then grown in a glasshouse under controlled conditions in a glasshouse (at 24/16° C., day/night; 14 hours light; 65% humidity) and watered twice daily. After 13 days, the test is evaluated for the percentage damage caused to the plant. The biological activities are shown below in Table 13, on a five point scale (5=80-100%; 4=60-79%; 3=40-59%; 2=20-39%; 1=0-19%).

[2] = tested on: Amaranthus retoflexus (AMARE)
Description: as §1

[3] = tested on: Echinochloa crus-galli (ECHCG)
Description: as §1

[4] = tested on: Ipomoea hederacea (IPOHE)
Description: as §1

Setaria faberi (SETFA) = tested on: Setaria faberi (SETFA)
Description: as §1

Solanum nigrum (SOLNI) = tested on: Solanum nigrum (SOLNI)
Description: as §1

| Structure (SMILES) | percentage damage caused to the plant, ALOMY [1] | percentage damage caused to the plant, AMARE [2] | percentage damage caused to the plant, ECHCG [3] | percentage damage caused to the plant, IPOHE [4] | percentage damage caused to the plant, SETFA (Setaria faberi (SETFA)) | percentage damage caused to the plant, SOLNI (Solanum nigrum (SOLNI)) |
| --- | --- | --- | --- | --- | --- | --- |
| O=c1c(-c2c(Cl)ccc(Cl)c2OCc2ccc(Cl)c(Cl)c2)c(O)c2cccnc2n1CC(F)F [Compound 4.005] | 1 (1=0-19%) | 5 (5=80-100%) | 1 (1=0-19%) | 5 (5=80-100%) | 1 (1=0-19%) | 5 (5=80-100%) |
| O=c1c(-c2c(Cl)ccc(Cl)c2OCc2ccc(C(F)(F)F)cc2)c(O)c2cccnc2n1CC(F)F [Compound 4.006] | 2 (2=20-39%) | 5 (5=80-100%) | 2 (2=20-39%) | 5 (5=80-100%) | 2 (2=20-39%) | 5 (5=80-100%) |
| COc1ccnc2c1c(O)c(-c1c(Cl)ccc(Cl)c1OCc1ccccc1)c(=O)n2CC(F)F [Compound 4.007] | 3 (3=40-59%) | 5 (5=80-100%) | 3 (3=40-59%) | 5 (5=80-100%) | 2 (2=20-39%) | 5 (5=80-100%) |
| O=c1c(-c2c(Cl)ccc(Cl)c2OCc2ccccc2)c(O)c2nccnc2n1CC(F)F [Compound 4.008] | 4 (4=60-79%) | 5 (5=80-100%) | 5 (5=80-100%) | 5 (5=80-100%) | 5 (5=80-100%) | 5 (5=80-100%) |
| C#CCn1c(=O)c(-c2c(F)ccc(Cl)c2OCc2ccccc2)c(OC(=O)C(C)C)c2cccnc21 [Compound 5.001] | 1 (1=0-19%) | 5 (5=80-100%) | 3 (3=40-59%) | 5 (5=80-100%) | 2 (2=20-39%) | 5 (5=80-100%) |
| C#CCn1c(=O)c(-c2c(F)ccc(Cl)c2OCc2ccccc2)c(OC(=O)C(C)C)c2nccnc21 [Compound 5.003] | 2 (2=20-39%) | 5 (5=80-100%) | 2 (2=20-39%) | 5 (5=80-100%) | 5 (5=80-100%) | 5 (5=80-100%) |
| C#CCn1c(=O)c(-c2c(F)ccc(Cl)c2OCc2ccccc2)c(O)c2cccnc21 [Compound 6.001] | 3 (3=40-59%) | 5 (5=80-100%) | 4 (4=60-79%) | 5 (5=80-100%) | 2 (2=20-39%) | 5 (5=80-100%) |
| C#CCn1c(=O)c(-c2c(F)ccc(Cl)c2OCc2ccccc2)c(O)c2c(OC)ccnc21 [Compound 6.002] | 5 (5=80-100%) | 5 (5=80-100%) | 5 (5=80-100%) | 5 (5=80-100%) | 5 (5=80-100%) | 5 (5=80-100%) |
| C#CCn1c(=O)c(-c2c(F)ccc(Cl)c2OCc2ccccc2)c(O)c2nccnc21 [Compound 6.003] | 4 (4=60-79%) | 5 (5=80-100%) | 4 (4=60-79%) | 5 (5=80-100%) | 5 (5=80-100%) | 5 (5=80-100%) |
| CC(C)C(=O)Oc1c(-c2c(F)ccc(Cl)c2OCc2ccccc2)c(=O)n(CC(F)F)c2ncccc12 [Compound 7.001] | 1 (1=0-19%) | 5 (5=80-100%) | 1 (1=0-19%) | 5 (5=80-100%) | 1 (1=0-19%) | 5 (5=80-100%) |
| COc1ccnc2c1c(OC(C)=O)c(-c1c(F)ccc(Cl)c1OCc1ccccc1)c(=O)n2CC(F)F [Compound 7.002] | 4 (4=60-79%) | 5 (5=80-100%) | 5 (5=80-100%) | 5 (5=80-100%) | 5 (5=80-100%) | 5 (5=80-100%) |
| CC(C)C(=O)Oc1c(-c2c(F)ccc(Cl)c2OCc2ccccc2)c(=O)n(CC(F)F)c2nccnc12 [Compound 7.003] | 2 (2=20-39%) | 5 (5=80-100%) | 2 (2=20-39%) | 5 (5=80-100%) | 5 (5=80-100%) | 5 (5=80-100%) |
| O=c1c(-c2c(F)ccc(Cl)c2OCc2ccccc2)c(O)c2cccnc2n1CC(F)F [Compound 8.001] | 3 (3=40-59%) | 5 (5=80-100%) | 3 (3=40-59%) | 5 (5=80-100%) | 1 (1=0-19%) | 5 (5=80-100%) |
| COc1ccnc2c1c(O)c(-c1c(F)ccc(Cl)c1OCc1ccccc1)c(=O)n2CC(F)F [Compound 8.002] | 4 (4=60-79%) | 5 (5=80-100%) | 4 (4=60-79%) | 5 (5=80-100%) | 4 (4=60-79%) | 5 (5=80-100%) |
| O=c1c(-c2c(F)ccc(Cl)c2OCc2ccccc2)c(O)c2nccnc2n1CC(F)F [Compound 8.003] | 3 (3=40-59%) | 5 (5=80-100%) | 4 (4=60-79%) | 5 (5=80-100%) | 5 (5=80-100%) | 5 (5=80-100%) |
| C#CCn1c(=O)c(-c2cccc(Cl)c2OCc2ccccc2)c(OC(=O)C(C)C)c2cccnc21 [Compound 9.001] | 1 (1=0-19%) | 3 (3=40-59%) | 2 (2=20-39%) | 5 (5=80-100%) | 1 (1=0-19%) | 5 (5=80-100%) |
| C#CCn1c(=O)c(-c2cccc(Cl)c2OCc2ccccc2)c(OC(=O)C(C)C)c2nccnc21 [Compound 9.003] | 2 (2=20-39%) | 4 (4=60-79%) | 5 (5=80-100%) | 5 (5=80-100%) | 5 (5=80-100%) | 5 (5=80-100%) |
| C#CCn1c(=O)c(-c2cccc(Cl)c2OCc2ccccc2)c(O)c2cccnc21 [Compound 10.001] | 1 (1=0-19%) | 4 (4=60-79%) | 1 (1=0-19%) | 5 (5=80-100%) | 1 (1=0-19%) | 5 (5=80-100%) |
| C#CCn1c(=O)c(-c2cccc(Cl)c2OCc2ccccc2)c(O)c2nccnc21 [Compound 10.003] | 4 (4=60-79%) | 5 (5=80-100%) | 5 (5=80-100%) | 5 (5=80-100%) | 5 (5=80-100%) | 5 (5=80-100%) |
| CC(C)C(=O)Oc1c(-c2cccc(Cl)c2OCc2ccccc2)c(=O)n(CC(F)F)c2ncccc12 [Compound 11.001] | 1 (1=0-19%) | 5 (5=80-100%) | 1 (1=0-19%) | 5 (5=80-100%) | 1 (1=0-19%) | 5 (5=80-100%) |
| CC(C)C(=O)Oc1c(-c2cccc(Cl)c2OCc2ccccc2)c(=O)n(CC(F)F)c2nccnc12 [Compound 11.003] | 2 (2=20-39%) | 5 (5=80-100%) | 5 (5=80-100%) | 5 (5=80-100%) | 5 (5=80-100%) | 5 (5=80-100%) |
